Series [1] can be described thus: Oral availability in Sprague-Dawley rat at 1 mg/kg measured up to 24 hrs by LC-MS/MS analysis. Particulars: in vivo. In kind it is ADME, organism-based.
For series [2], the target named is High affinity nerve growth factor receptor (Homo sapiens, UniProt P04629). The series can be described thus: Inhibition of TRKA (unknown origin).
The target of series [3] is Bone morphogenetic protein receptor type-1A (Homo sapiens, UniProt P36894). The series can be described thus: Inhibition of BMPR1A (unknown origin).
Chain of Bone morphogenetic protein receptor type-1A (P36894 whole entry): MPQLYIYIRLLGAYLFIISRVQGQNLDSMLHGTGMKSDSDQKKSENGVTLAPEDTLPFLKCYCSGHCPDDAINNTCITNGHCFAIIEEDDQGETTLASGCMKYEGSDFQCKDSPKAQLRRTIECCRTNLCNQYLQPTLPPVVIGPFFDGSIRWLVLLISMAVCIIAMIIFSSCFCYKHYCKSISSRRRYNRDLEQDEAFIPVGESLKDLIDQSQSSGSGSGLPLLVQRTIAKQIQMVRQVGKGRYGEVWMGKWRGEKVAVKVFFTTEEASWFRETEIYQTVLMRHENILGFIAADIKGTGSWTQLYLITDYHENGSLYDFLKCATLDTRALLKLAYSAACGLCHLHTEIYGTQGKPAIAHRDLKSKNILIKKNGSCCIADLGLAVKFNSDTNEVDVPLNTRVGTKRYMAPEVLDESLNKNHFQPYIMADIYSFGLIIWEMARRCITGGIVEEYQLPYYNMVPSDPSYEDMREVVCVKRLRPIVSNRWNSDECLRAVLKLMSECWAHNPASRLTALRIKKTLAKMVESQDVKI
Series [4] can be described thus: Half life in Sprague-Dawley rat at 1 mg/kg, iv measured up to 24 hrs by LC-MS/MS analysis. In kind it is ADME, organism-based. The note with it: in vivo.
Series [5] addresses RAC-alpha serine/threonine-protein kinase (Homo sapiens, UniProt P31749). The series can be described thus: Inhibition of AKT1 (unknown origin).
The target in series [6] is Tyrosine-protein kinase CSK (Homo sapiens, UniProt P41240). The series can be described thus: Inhibition of CSK (unknown origin).
Chain of Tyrosine-protein kinase CSK (P41240 whole entry): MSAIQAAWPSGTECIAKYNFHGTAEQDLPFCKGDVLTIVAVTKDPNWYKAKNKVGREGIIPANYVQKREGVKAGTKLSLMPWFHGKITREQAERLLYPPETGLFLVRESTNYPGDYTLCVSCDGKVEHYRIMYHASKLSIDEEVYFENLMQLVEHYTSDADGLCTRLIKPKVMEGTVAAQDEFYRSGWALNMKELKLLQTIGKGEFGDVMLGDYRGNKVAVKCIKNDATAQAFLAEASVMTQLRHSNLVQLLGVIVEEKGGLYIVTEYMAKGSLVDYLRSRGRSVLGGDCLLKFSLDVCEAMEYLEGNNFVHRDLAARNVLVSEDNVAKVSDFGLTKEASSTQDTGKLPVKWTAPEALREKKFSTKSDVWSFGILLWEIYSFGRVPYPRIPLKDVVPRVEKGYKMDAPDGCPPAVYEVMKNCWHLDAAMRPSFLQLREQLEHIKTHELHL
Series [7] concerns the target Tyrosine-protein kinase JAK1 (Homo sapiens, UniProt P23458).
Description: Inhibition of human JAK1 kinase domain using biotin-Lyn-substrate-2 as substrate incubated for 1 hr by ELISA
Series [8] has as its target Tyrosine-protein kinase ABL1 (Homo sapiens, UniProt P00519). The series can be described thus: Inhibition of ABL (unknown origin).
For series [9], the target named is Proto-oncogene tyrosine-protein kinase Src (Homo sapiens, UniProt P12931). The series can be described thus: Inhibition of SRC (unknown origin).
Series [10] deals with Insulin-like growth factor 1 receptor (Homo sapiens, UniProt P08069). The series can be described thus: Inhibition of IGF1R (unknown origin).
Chain of Insulin-like growth factor 1 receptor (P08069 31-736 limits assumed): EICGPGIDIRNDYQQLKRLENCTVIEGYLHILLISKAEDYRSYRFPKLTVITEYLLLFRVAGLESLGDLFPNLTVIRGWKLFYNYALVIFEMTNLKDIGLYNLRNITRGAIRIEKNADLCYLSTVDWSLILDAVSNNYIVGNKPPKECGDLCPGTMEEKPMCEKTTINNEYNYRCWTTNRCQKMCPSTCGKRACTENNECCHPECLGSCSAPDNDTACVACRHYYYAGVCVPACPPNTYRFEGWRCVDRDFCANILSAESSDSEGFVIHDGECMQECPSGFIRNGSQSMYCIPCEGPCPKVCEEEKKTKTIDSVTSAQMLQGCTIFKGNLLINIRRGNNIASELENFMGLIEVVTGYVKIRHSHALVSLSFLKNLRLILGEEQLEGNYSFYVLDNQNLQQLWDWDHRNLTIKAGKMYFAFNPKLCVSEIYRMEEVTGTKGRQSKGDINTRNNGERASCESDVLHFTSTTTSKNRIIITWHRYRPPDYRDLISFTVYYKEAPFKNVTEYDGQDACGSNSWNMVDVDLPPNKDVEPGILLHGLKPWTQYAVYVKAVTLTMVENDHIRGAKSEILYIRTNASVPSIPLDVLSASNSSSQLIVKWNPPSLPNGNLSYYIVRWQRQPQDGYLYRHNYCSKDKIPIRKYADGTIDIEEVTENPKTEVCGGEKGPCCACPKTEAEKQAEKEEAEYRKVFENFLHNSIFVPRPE
Chain of Insulin-like growth factor 1 receptor (P08069 741-1367 limits assumed): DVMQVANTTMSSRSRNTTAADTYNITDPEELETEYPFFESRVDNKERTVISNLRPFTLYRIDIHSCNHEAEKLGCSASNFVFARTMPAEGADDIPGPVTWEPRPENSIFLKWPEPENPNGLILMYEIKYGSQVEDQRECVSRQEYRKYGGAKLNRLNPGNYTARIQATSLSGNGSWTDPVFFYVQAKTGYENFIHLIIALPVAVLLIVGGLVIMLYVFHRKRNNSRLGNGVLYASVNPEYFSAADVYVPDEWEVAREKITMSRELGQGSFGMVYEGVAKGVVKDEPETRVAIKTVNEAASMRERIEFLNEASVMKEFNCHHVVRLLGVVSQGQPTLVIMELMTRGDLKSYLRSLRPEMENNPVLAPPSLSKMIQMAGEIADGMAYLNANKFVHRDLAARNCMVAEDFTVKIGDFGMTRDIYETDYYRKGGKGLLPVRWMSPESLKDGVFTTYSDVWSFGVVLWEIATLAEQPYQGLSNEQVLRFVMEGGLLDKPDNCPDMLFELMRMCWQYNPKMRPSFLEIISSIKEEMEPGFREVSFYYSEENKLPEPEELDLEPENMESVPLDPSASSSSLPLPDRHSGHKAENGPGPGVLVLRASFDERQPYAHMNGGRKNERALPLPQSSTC
The conditions of series [11]: pampa, pH 6.5, 2 h.
Description: Permeability of the compound in pH 6.5 incubated for 2 hrs by PAMPA based HPLC analysis
In series [12] the target is Casein kinase I isoform delta (Homo sapiens, UniProt P48730). The series can be described thus: Inhibition of CHKdelta (unknown origin).
Chain of Casein kinase I isoform delta (P48730 whole entry, canonical isoform): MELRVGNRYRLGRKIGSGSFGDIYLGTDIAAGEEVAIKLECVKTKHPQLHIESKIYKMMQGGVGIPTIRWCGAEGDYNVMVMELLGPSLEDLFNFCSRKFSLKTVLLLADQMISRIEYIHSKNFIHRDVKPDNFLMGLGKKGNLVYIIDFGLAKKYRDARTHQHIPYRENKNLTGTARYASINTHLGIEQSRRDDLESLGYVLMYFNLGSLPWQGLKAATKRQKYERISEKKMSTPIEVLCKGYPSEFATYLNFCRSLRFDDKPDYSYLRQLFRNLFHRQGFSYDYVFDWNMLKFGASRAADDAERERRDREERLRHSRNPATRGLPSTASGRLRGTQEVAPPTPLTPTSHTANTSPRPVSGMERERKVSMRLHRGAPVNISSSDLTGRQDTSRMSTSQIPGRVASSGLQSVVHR
Series [13] has as its target Tyrosine-protein kinase JAK2 (Homo sapiens, UniProt O60674).
Description: Inhibition of human JAK2 kinase domain using biotin-Lyn-substrate-2 as substrate incubated for 1 hr by ELISA
Another series in a line: cells. Particulars: Rattus norvegicus, Lewis, Splenocyte, 72 h.
A short description of series [14]: Inhibition of SYK (unknown origin). Details: species or system Homo sapiens.
Series [15] addresses Mitogen-activated protein kinase 11 (Homo sapiens, UniProt Q15759). The series can be described thus: Inhibition of P38beta (unknown origin).

SMILES strings stand for the structures.

The IC50 is the midpoint of a concentration-inhibition curve. The low end stands for higher potency, the high end for lower potency. For orientation: half-life means the time in which the quantity being followed falls by half. Higher therefore signals slow decline.

Chain of Tyrosine-protein kinase ABL1 (P00519 whole entry): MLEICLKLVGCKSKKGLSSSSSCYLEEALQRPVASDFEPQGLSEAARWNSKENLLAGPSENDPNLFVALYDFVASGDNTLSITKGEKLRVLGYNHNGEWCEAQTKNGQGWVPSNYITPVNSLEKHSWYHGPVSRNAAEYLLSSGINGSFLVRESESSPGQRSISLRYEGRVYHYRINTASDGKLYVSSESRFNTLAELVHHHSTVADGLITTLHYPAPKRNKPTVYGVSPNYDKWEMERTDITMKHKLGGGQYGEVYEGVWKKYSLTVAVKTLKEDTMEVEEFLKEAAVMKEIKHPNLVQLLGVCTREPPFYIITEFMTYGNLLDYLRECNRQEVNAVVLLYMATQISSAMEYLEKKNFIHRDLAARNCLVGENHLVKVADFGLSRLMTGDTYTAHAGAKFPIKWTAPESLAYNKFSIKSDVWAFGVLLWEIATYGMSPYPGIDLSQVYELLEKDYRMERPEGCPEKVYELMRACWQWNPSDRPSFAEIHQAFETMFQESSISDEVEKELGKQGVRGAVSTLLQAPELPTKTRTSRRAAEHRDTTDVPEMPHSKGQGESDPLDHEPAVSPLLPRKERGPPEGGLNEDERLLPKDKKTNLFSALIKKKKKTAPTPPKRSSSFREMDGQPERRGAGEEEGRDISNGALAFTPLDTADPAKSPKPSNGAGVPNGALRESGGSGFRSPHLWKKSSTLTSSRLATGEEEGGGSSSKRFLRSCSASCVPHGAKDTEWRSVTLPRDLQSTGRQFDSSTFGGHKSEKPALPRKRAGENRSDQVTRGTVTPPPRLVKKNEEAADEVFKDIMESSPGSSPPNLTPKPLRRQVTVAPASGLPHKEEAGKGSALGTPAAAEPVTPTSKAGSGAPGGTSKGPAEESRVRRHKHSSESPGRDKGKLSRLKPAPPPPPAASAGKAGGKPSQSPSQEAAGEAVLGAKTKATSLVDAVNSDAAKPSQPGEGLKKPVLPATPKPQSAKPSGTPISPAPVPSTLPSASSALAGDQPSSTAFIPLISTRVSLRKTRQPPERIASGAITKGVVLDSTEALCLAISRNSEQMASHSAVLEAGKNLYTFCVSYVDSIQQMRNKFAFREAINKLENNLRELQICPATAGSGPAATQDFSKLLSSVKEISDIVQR
Chain of RAC-alpha serine/threonine-protein kinase (P31749 whole entry): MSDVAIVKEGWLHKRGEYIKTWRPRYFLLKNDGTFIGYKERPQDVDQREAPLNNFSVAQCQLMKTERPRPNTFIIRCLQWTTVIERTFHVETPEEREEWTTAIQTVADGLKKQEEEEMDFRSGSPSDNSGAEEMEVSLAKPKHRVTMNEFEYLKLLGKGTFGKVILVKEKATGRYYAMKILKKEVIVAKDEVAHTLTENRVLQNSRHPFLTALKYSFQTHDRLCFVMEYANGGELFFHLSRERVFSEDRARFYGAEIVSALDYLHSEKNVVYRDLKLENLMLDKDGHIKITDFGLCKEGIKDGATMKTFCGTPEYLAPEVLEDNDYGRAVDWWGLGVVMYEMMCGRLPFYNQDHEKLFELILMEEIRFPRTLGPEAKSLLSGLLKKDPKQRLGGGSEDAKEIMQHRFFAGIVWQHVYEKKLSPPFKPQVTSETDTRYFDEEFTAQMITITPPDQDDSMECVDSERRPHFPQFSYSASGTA
Chain of Mitogen-activated protein kinase 11 (Q15759 whole entry): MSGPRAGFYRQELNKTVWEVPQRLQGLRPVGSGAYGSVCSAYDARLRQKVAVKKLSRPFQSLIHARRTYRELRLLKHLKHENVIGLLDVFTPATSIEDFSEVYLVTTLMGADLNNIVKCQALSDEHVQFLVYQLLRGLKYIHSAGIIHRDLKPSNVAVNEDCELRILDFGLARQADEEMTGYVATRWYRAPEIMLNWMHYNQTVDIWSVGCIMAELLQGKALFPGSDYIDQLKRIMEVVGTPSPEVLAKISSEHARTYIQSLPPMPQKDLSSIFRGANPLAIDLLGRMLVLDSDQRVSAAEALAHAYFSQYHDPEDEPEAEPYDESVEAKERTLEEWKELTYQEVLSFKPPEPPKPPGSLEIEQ
Description for cells: Immunosuppressive activity in Lewis rat splenocytes assessed as inhibition of concanavalin A-induced IL-2 receptor expression incubated for 3 days by alamarBlue assay

For `C[C@@H]1CCN(C(=O)CC#N)C[C@@H]1n1ccc2cnc3[nH]ccc3c21`, the bioavailability in series [1] was 103%. Moreover, the IC50 in [2] was above 1000 nM; in series [3], above 1000 nM; in [5], above 1000 nM; in series [6] it was above 1000 nM; in series [7], 0.46 nM; in series [8], above 1000 nM. Also, the half-maximal inhibitory concentration (IC50) in series [9] is above 1000 nM; in series [10], above 1000 nM; in [12], above 1000 nM; in [13], 0.3 nM; in the series “cells”, 4.3 nM; in series [14] it was above 1000 nM. Further, the IC50 in series [15] was above 1000 nM. In series [4], this molecule had a half-life of 98.4 min. Also, the permeability in series [11] is given as 20 10^-6 cm/s.

The values above are taken from ChEMBL document CHEMBL5244205, “Discovery of tricyclic dipyrrolopyridine derivatives as novel JAK inhibitors” (Bioorg Med Chem, 2017).
